Test results from patent publication US11447503B2, “Pyridine carbamates and their use as GLUN2B receptor modulators” (JANSSEN PHARMACEUTICA NV, priority 2019, dated 2022).

Target: human GluN1/GluN2B NMDA receptors (Homo sapiens, UniProt Q05586+Q13224)
Assay: Cell-based calcium flux (FLIPR) assay on cloned human GluN1/GluN2B ion channels expressed in mammalian cells
Settings: standard assay; glutamate ~EC40, 10 μM glycine; stable Tet-On cell line
Outline: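 Tet-On-induced stable cells expressing human GluN1/GluN2B, Calcium 5 dye. Compounds preincubated 5 min (agonist check), then glutamate at ~EC40 plus 10 μM glycine added for 5 min; Mg2+ and buffer composition differ between standard and HTS formats. FLIPR Tetra fluorescence normalised to control wells; (+)MK-801 as antagonist control.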

Sequence of human GluN1/GluN2B NMDA receptors (Q13224 27-1484, other chains not shown): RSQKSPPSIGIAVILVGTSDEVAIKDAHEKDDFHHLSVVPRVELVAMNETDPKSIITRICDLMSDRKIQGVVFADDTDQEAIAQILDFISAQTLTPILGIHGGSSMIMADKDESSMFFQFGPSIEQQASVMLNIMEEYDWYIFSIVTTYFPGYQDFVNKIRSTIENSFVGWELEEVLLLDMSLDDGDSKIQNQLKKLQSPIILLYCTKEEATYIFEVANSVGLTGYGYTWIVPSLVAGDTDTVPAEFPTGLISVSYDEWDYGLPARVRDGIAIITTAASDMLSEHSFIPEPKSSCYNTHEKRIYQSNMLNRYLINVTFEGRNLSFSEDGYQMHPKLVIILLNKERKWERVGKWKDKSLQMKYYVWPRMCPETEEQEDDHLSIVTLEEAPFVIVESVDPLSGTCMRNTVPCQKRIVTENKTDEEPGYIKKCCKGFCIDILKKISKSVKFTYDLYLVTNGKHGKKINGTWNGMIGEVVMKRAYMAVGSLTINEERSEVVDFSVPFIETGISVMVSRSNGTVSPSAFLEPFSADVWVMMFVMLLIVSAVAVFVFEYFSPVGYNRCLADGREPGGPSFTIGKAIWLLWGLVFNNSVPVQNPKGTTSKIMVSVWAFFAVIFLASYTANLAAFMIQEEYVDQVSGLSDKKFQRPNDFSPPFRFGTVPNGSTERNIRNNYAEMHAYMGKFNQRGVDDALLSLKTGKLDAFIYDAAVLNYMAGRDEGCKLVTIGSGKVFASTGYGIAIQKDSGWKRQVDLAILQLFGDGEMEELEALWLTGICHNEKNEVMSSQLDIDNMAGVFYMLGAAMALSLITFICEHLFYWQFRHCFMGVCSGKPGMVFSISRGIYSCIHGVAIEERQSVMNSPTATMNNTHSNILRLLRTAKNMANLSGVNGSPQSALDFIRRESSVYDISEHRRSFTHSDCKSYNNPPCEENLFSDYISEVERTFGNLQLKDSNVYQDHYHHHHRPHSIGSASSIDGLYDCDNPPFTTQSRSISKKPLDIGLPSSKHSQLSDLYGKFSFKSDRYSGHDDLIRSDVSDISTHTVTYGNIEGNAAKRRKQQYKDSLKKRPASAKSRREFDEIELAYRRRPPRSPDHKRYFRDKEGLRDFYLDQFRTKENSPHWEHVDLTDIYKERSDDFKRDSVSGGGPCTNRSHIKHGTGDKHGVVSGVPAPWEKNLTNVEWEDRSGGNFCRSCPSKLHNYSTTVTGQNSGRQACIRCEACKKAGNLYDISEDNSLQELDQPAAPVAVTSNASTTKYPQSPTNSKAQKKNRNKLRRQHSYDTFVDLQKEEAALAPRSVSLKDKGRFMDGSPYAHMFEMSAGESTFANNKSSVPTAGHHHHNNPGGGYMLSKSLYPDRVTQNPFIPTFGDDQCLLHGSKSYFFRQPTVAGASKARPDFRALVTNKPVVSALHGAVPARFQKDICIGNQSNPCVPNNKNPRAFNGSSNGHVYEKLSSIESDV

| Compound | IC50 [nM] |
| --- | --- |
| COc1ncc(-c2cc(F)c(F)c(F)c2)cc1CN1CCOC1=O [Example 102, 3-[[2-Methoxy-5-(3,4,5-trifluorophenyl)-3-pyridyl]methyl]oxazolidin-2-one] | 172 |
| COc1ncc(-c2ccc(F)c(C)c2F)cc1CN1CCOC1=O [Example 103, 3-[[5-(2,4-Difluoro-3-methyl-phenyl)-2-methoxy-3-pyridyl]methyl] oxazolidin-2-one] | 46 |
| COc1ncc(-c2cc(C)cc(F)c2)cc1CN1CCOC1=O [Example 104, 3-[[5-(3-Fluoro-5-methyl-phenyl)-2-methoxy-3-pyridyl]methyl]oxazolidin-2-one] | 159 |
| COc1ncc(-c2cccc(C)c2)cc1CN1CCOC1=O [Example 105, 3-[[2-Methoxy-5-(m-tolyl)-3-pyridyl]methyl]oxazolidin-2-one] | 434 |
| COc1ncc(-c2ccc(Cl)c(Cl)c2)cc1CN1CCOC1=O [Example 106, 3-[[5-(3,4-Dichlorophenyl)-2-methoxy-3-pyridyl]methyl]oxazolidin-2-one] | 33 |
| COc1ncc(-c2ccc(Cl)c(OC(F)F)c2)cc1CN1CCOC1=O [Example 107, 3-[[5-[4-Chloro-3-(difluoromethoxy)phenyl]-2-methoxy-3-pyridyl]methyl]oxazolidin-2-one] | 11 |
| COc1ncc(-c2ccc(F)c(Cl)c2)cc1CN1CCOC1=O [Example 108, 3-[[5-(3-Chloro-4-fluoro-phenyl)-2-methoxy-3-pyridyl]methyl]oxazolidin-2-one] | 32 |
| COc1ncc(-c2cccc(Cl)c2)cc1CN1CCOC1=O [Example 109, 3-[[5-(3-Chlorophenyl)-2-methoxy-3-pyridyl]methyl]oxazolidin-2-one] | 477 |
| COc1ncc(-c2ccc(F)c(C(C)(F)F)c2)cc1CN1CCOC1=O [Example 110, 3-[[5-[3-(1,1-Difluoroethyl)-4-fluoro-phenyl]-2-methoxy-3-pyridyl]methyl]oxazolidin-2-one] | 37 |
| COc1ncc(-c2cccc(C(C)(F)F)c2)cc1CN1CCOC1=O [Example 111, 3-[[5-[3-(1,1-Difluoroethyl)phenyl]-2-methoxy-3-pyridyl]methyl]oxazolidin-2-one] | 47 |
| COc1ncc(-c2cc(C)c(F)c(F)c2)cc1CN1CCOC1=O [Example 112, 3-[[5-(3,4-Difluoro-5-methyl-phenyl)-2-methoxy-3-pyridyl]methyl] oxazolidin-2-one] | 18 |
| COc1ncc(-c2ccc(F)c(OC(F)(F)F)c2)cc1CN1CCOC1=O [Example 113, 3-[[5-[4-Fluoro-3-(trifluoromethoxy)phenyl]-2-methoxy-3-pyridyl]methyl]oxazolidin-2-one] | 13 |
| COc1ncc(-c2cc(F)cc(C)c2F)cc1CN1CCOC1=O [Example 114, 3-[[5-(2,5-Difluoro-3-methyl-phenyl)-2-methoxy-3-pyridyl]methyl] oxazolidin-2-one] | 542 |
| COc1ncc(-c2ccc(Cl)c(C(F)F)c2)cc1CN1CCOC1=O [Example 115, 3-[[5-[4-Chloro-3-(difluoromethyl)phenyl]-2-methoxy-3-pyridyl]methyl]oxazolidin-2-one] | 10 |
| COc1ncc(-c2ccc(F)c(C)c2)cc1CN1CCOC1=O [Example 116, 3-[[5-(4-Fluoro-3-methyl-phenyl)-2-methoxy-3-pyridyl]methyl]oxazolidin-2-one] | 18 |

Next, values leading:

| IC50 [nM] | Compound |
| --- | --- |
| 60 | COc1ncc(-c2ccc(F)c(OC(F)F)c2)cc1CN1C(=O)OC[C@@H]1C [Example 117, (4S)-3-[[5-[3-(Difluoromethoxy)-4-fluoro-phenyl]-2-methoxy-3-pyridyl]methyl]-4-methyl-oxazolidin-2-one] |
| 26 | COc1ncc(-c2ccc(F)c(OC(F)F)c2)cc1CN1C(=O)OC[C@H]1C [Example 118, (4R)-3-[[5-[3-(Difluoromethoxy)-4-fluoro-phenyl]-2-methoxy-3-pyridyl]methyl]-4-methyl-oxazolidin-2-one] |
| 12 | COc1ncc(-c2ccc(F)c(OC(F)F)c2)cc1CN1CCOC1=O [Example 119, 3-[[5-[3-(Difluoromethoxy)-4-fluoro-phenyl]-2-methoxy-3-pyridyl]methyl]oxazolidin-2-one] |
| 121 | COc1ncc(-c2ccc(F)c(C(F)F)c2)cc1CN1C(=O)OC[C@@H]1C [Example 120, (4S)-3-[[5-[3-(Difluoromethyl)-4-fluoro-phenyl]-2-methoxy-3-pyridyl]methyl]-4-methyl-oxazolidin-2-one] |
| 21 | COc1ncc(-c2ccc(F)c(C(F)F)c2)cc1CN1C(=O)OC[C@H]1C [Example 121, (4R)-3-[[5-[3-(Difluoromethyl)-4-fluoro-phenyl]-2-methoxy-3-pyridyl]methyl]-4-methyl-oxazolidin-2-one] |
| 15 | COc1ncc(-c2ccc(F)c(C(F)F)c2)cc1CN1CCOC1=O [Example 122, 3-[[5-[3-(Difluoromethyl)-4-fluoro-phenyl]-2-methoxy-3-pyridyl]methyl]oxazolidin-2-one] |
| 63 | O=C1OCCCN1Cc1cc(-c2ccc(F)c(C(F)F)c2)cnc1C(F)F [Example 123, 3-[[2-(Difluoromethyl)-5-[3-(difluoromethyl)-4-fluoro-phenyl]-3-pyridyl]methyl]-1,3-oxazinan-2-one] |
| 56 | O=C1OCCN1Cc1cc(-c2ccc(F)c(C(F)F)c2)cnc1C(F)F [Example 124, 3-[[2-(Difluoromethyl)-5-[3-(difluoromethyl)-4-fluoro-phenyl]-3-pyridyl]methyl]oxazolidin-2-one] |
| 39 | O=C1OCCN1Cc1cc(-c2ccc(F)c(OC(F)F)c2)cnc1C(F)F [Example 125, 3-[[5-[3-(Difluoromethoxy)-4-fluoro-phenyl]-2-(difluoromethyl)-3-pyridyl]methyl]oxazolidin-2-one] |
| 19 | O=C1OCCCN1Cc1cc(-c2ccc(F)c(OC(F)F)c2)cnc1C(F)F [Example 126, 3-[[5-[3-(Difluoromethoxy)-4-fluoro-phenyl]-2-(difluoromethyl)-3-pyridyl]methyl]-1,3-oxazinan-2-one] |
| 276 | Cc1cc(-c2cnc(C(F)F)c(CN3CCCOC3=O)c2)ccc1F [Example 127, 3-[[2-(Difluoromethyl)-5-(4-fluoro-3-methyl-phenyl)-3-pyridyl]methyl]-1,3-oxazinan-2-one] |
| 204 | Cc1cc(-c2cnc(C(F)F)c(CN3CCOC3=O)c2)ccc1F [Example 128, 3-[[2-(Difluoromethyl)-5-(4-fluoro-3-methyl-phenyl)-3-pyridyl]methyl]oxazolidin-2-one] |
| 59 | O=C1OCCCN1Cc1cc(-c2ccc(Cl)c(OC(F)F)c2)cnc1C(F)F [Example 129, 3-[[5-[4-Chloro-3-(difluoromethoxy)phenyl]-2-(difluoromethyl)-3-pyridyl]methyl]-1,3-oxazinan-2-one] |
| 30 | O=C1OCCN1Cc1cc(-c2ccc(Cl)c(OC(F)F)c2)cnc1C(F)F [Example 130, 3-[[5-[4-Chloro-3-(difluoromethoxy)phenyl]-2-(difluoromethyl)-3-pyridyl]methyl]oxazolidin-2-one] |
| 153 | O=C1OCCN1Cc1cc(-c2ccc(F)c(C(F)F)c2)cnc1OC(F)F [Example 131, 3-[[2-(Difluoromethoxy)-5-[3-(difluoromethyl)-4-fluoro-phenyl]-3-pyridyl]methyl]oxazolidin-2-one] |
